Source: patent US20260042764A1, “COMPOSITIONS AND METHODS FOR INHIBITION OF KRAS” (TheRas, Inc., priority 2022, published 2026)

Columns and labels:
[1] = target: T1, Avi-KRAS G12V (1-169) GppNHp/RAF1 RBD-3xFLAG (52-151) (Homo sapiens, UniProt P01116, G12V); test: Raf1-KRAS G12V-GppNHP disruption HTRF assay (Biological Example 1); type: binding
T1 construct: Avi-KRAS G12V (1-169)
Procedure, shortened: (§1)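 Compounds were tested for disruption of KRAS–RAF1 RBD binding by HTRF in 50 mM Tris pH 7.5, 100 mM NaCl, 5 mM MgCl2, 0.1% BSA, 0.01% Tween, 10% DMSO. Protein mix was incubated 1 h at room temperature with shaking, then detection reagents added for another 1 h. Activity expressed as percent of DMSO control.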

[2] = target: T2, Avi-KRAS WT (1-169) GppNHp/RAF1 RBD-3xFLAG (52-151) (Homo sapiens, UniProt P01116); test: Raf1-KRAS WT-GppNHP disruption HTRF assay (Biological Example 1); type: binding
T2 construct: Avi-KRAS WT (1-169)
Procedure, shortened: as §1

GP2d cells (KRAS G12D) = test: Cell-based pERK HTRF assay in GP2d cell (Biological Example 2); conditions: GP2d, GP2d (KRAS G12D) cells, pERK HTRF
Procedure, shortened: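 HTRF read-out of pERK (excitation 320 nm, emission 615 nm) after lysates sat 4–24 h at room temperature with Eu cryptate and d2 antibodies.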

[3] = target: T3, Avi-KRAS G12D (1-169) GppNHp/RAF1 RBD-3xFLAG (52-151) (Homo sapiens, UniProt P01116, G12D); test: Raf1-KRAS G12D-GppNHP disruption HTRF assay (Biological Example 1); type: binding
T3 construct: Avi-KRAS G12D (1-169)
Procedure, shortened: as §1

[4] = target: T4, Avi-KRAS G12R (1-169) GppNHp/RAF1 RBD-3xFLAG (52-151) (Homo sapiens, UniProt P01116, G12R); test: Raf1-KRAS G12R-GppNHP disruption HTRF assay (Biological Example 1); type: binding
T4 construct: Avi-KRAS G12R (1-169)
Procedure, shortened: as §1

SW620 cells (KRAS G12V) = test: Cell-based pERK HTRF assay in SW620 cell (Biological Example 4); conditions: Homo sapiens, SW-620, SW620 (KRAS G12V) cells, pERK HTRF
Procedure, shortened: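 SW620 cells were treated for 4 h with compound in a 9-point half-log series from 1 μM top (0.25% DMSO), then lysed. Phospho-ERK was detected by HTRF with d2 and Eu cryptate antibodies after 4–24 h at room temperature, read at 615 nm emission.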

[5] = KRAS G12V, GppNHp-loaded, class symbols
[6] = KRAS WT, GppNHp-loaded, class symbols
[7] = KRAS G12D, GppNHp-loaded, class symbols
[8] = KRAS G12R, GppNHp-loaded, class symbols

T2 sequence (P01116 1-169 isoform P01116-2): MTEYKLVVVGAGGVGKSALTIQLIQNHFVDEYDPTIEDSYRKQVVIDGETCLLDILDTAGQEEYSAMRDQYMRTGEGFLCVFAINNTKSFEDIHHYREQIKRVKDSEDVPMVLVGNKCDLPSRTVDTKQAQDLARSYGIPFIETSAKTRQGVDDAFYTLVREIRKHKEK
T4 sequence (P01116 1-169 isoform P01116-2 G12R): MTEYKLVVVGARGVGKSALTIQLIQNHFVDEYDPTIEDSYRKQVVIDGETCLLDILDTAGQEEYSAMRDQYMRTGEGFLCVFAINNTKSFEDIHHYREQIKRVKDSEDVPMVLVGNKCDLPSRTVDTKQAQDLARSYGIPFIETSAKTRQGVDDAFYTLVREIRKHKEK
T1 sequence (P01116 1-169 isoform P01116-2 G12V): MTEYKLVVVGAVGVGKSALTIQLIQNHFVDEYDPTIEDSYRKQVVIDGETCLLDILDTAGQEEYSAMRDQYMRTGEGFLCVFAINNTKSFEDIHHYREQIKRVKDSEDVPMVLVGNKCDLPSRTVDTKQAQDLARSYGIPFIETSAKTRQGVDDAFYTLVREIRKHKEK
T3 sequence (P01116 1-169 isoform P01116-2 G12D): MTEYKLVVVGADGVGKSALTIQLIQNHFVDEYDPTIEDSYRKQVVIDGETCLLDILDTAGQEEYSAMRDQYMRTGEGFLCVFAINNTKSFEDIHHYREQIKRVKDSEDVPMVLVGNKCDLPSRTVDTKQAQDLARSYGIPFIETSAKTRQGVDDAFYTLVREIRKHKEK

IC50 ([1]; KRAS G12V-GppNHp/RAF1 RBD HTRF) [nM] | IC50 ([2]; KRAS WT-GppNHp/RAF1 RBD HTRF) [nM] | IC50 (GP2d cells (KRAS G12D)) [nM] | IC50 ([3]; KRAS G12D-GppNHp/RAF1 RBD HTRF) [nM] | IC50 ([4]; KRAS G12R-GppNHp/RAF1 RBD HTRF) [nM] | IC50 (SW620 cells (KRAS G12V)) [nM] | IC50 [1, 5] [nM] | IC50 [2, 6] [nM] | IC50 (GP2d cells (KRAS G12D); class symbols) [nM] | IC50 [3, 7] [nM] | IC50 [4, 8] [nM] | IC50 (SW620 cells (KRAS G12V); class symbols) [nM] | Compound
< 100 | < 100 | < 100 | < 100 | < 100 | < 100 |  |  |  |  |  |  | CCN(c1nc(OC[C@@]23CCCN2C[C@H](F)C3)nc2c(F)c(-c3ccc(F)c4sc(N)c(C#N)c34)c(C(F)(F)F)cc12)[C@H]1CCN(C(=O)N2CCCC2)C1 [Compound 542]
< 100 | < 100 | < 100 | < 100 | < 100 | < 100 |  |  |  |  |  |  | CCN(c1nc(OC[C@@]23CCCN2C[C@H](F)C3)nc2c(F)c(-c3ccc(F)c4sc(N)c(C#N)c34)c(C(F)(F)F)cc12)[C@H]1CCN(C(=O)C2CC2(F)F)C1 (stereo partly drawn) [Compound 548]
100 to 1000 | 100 to 1000 | < 100 | < 100 | 100 to 1000 | < 100 |  |  |  |  |  |  | CCN(c1nc(OC[C@@]23CCCN2C[C@H](F)C3)nc2c(F)c(-c3ccc(F)c4sc(N)c(C#N)c34)c(C(F)(F)F)cc12)[C@H]1CC(=O)N(CC(F)F)C1 [Compound 549]
< 100 | < 100 | < 100 | < 100 | < 100 | < 100 |  |  |  |  |  |  | CCN(c1nc(OC[C@@]23CCCN2C[C@H](F)C3)nc2c(F)c(-c3ccc(F)c4sc(N)c(C#N)c34)c(C(F)(F)F)cc12)[C@H]1CCN(C(=O)C2(C#N)CC2)C1 [Compound 560]
100 to 1000 | 100 to 1000 | < 100 | < 100 | < 100 | < 100 |  |  |  |  |  |  | [2H]C1([2H])CN2C[C@H](F)C[C@]2(COc2nc(N(CC)[C@H]3CCN(C(=O)C(C)C)C3)c3cc(C(F)(F)F)c(-c4ccc(F)c5sc(N)c(C#N)c45)c(F)c3n2)C1 [Compound 565]
 |  |  |  |  |  | 100 to 1000 | 100 to 1000 | < 100 | 100 to 1000 | 100 to 1000 | < 100 | CCN(c1nc(OC[C@]23C[C@@H](F)CN2CC2(CC2)C3)nc2c(F)c(-c3ccc(F)c4sc(N)c(C#N)c34)c(C(F)(F)F)cc12)[C@H]1CCN(C(=O)C(C)C)C1 [Compound 566]
 |  |  |  |  |  | 100 to 1000 | < 100 | < 100 | < 100 | < 100 | < 100 | CCN(CC)C(=O)N1CCC(N(CC)c2nc(OCC34CCCN3CC(F)C4)nc3c(F)c(-c4ccc(F)c5sc(N)c(C#N)c45)c(C(F)(F)F)cc23)C1 (stereo not drawn) [Compound 572]
 |  |  |  |  |  | 1000 to 10000 | 1000 to 10000 | < 100 | 1000 to 10000 | 1000 to 10000 | 100 to 1000 | CCN(c1nc(OC[C@H]2C[C@@H](OC)CN2C)nc2c(F)c(-c3ccc(F)c4sc(N)c(C#N)c34)c(C(F)(F)F)cc12)[C@H]1CCN(C(=O)C(C)C)C1 [Compound 592]
 |  |  |  |  |  | < 100 | < 100 | < 100 | < 100 | < 100 | < 100 | CCN(c1nc(OC[C@@]23CCCN2C[C@H](F)C3)nc2c(F)c(-c3ccc(F)c4sc(N)c(C#N)c34)c(C(F)(F)F)cc12)[C@H]1CCN(C(=O)C2C[C@@H]2C)C1 (stereo partly drawn) [Compound 604]

The next lines start with the molecule.

Compound | IC50 ([1]; KRAS G12V-GppNHp/RAF1 RBD HTRF) [nM] | IC50 ([2]; KRAS WT-GppNHp/RAF1 RBD HTRF) [nM] | IC50 (GP2d cells (KRAS G12D)) [nM] | IC50 ([3]; KRAS G12D-GppNHp/RAF1 RBD HTRF) [nM] | IC50 ([4]; KRAS G12R-GppNHp/RAF1 RBD HTRF) [nM] | IC50 (SW620 cells (KRAS G12V)) [nM] | IC50 [1, 5] [nM] | IC50 [2, 6] [nM] | IC50 (GP2d cells (KRAS G12D); class symbols) [nM] | IC50 [3, 7] [nM] | IC50 [4, 8] [nM] | IC50 (SW620 cells (KRAS G12V); class symbols) [nM]
C[C@@H]1[C@H](N(C)c2nc(OC[C@]34C[C@@H](F)CN3CC3(CC3)C4)nc3c(F)c(-c4ccc(F)c5sc(N)c(C#N)c45)c(C(F)(F)F)cc23)CCN1C(=O)C1CC1 [Compound 564] | 1000 to 10000 | 100 to 1000 | < 100 | 100 to 1000 | 100 to 1000 | < 100 |  |  |  |  |  | 
[2H]C1([2H])CN2C[C@H](F)C[C@]2(COc2nc(N3C[C@H]4C[C@@H]3CO4)c3cc(C(F)(F)F)c(-c4ccc(F)c5sc(N)c(C#N)c45)c(F)c3n2)C1 [Compound 567] |  |  |  |  |  |  | 100 to 1000 | 100 to 1000 | < 100 | 100 to 1000 | 100 to 1000 | < 100
CC1c2cc(C(=O)N(C)C)nn2CCN1c1nc(OCC23CCCN2CC(F)C3)nc2c(F)c(-c3ccc(F)c4sc(N)c(C#N)c34)c(C(F)(F)F)cc12 (stereo not drawn) [Compound 568] |  |  |  |  |  |  | 100 to 1000 | 1000 to 10000 | < 100 | 1000 to 10000 | 100 to 1000 | < 100
C[C@@H]1[C@H](N(C)c2nc(OC[C@]34C[C@@H](F)CN3CC3(CC3)C4)nc3c(F)c(-c4ccc(F)c5sc(N)c(C#N)c45)c(Cl)cc23)CCN1C(=O)C1CC1 [Compound 593] |  |  |  |  |  |  | 1000 to 10000 | 1000 to 10000 | 100 to 1000 | 1000 to 10000 | 1000 to 10000 | 100 to 1000
N#Cc1c(N)sc2c(F)ccc(-c3c(C(F)(F)F)cc4c(N5CC6CC(C5)O6)nc(OC[C@]56C[C@@H](F)CN5CC5(CC5)C6)nc4c3F)c12 [Compound 594] |  |  |  |  |  |  | 1000 to 10000 | 1000 to 10000 | < 100 | 1000 to 10000 | 1000 to 10000 | < 100
N#Cc1c(N)sc2c(F)ccc(-c3c(C(F)(F)F)cc4c(N5C[C@H]6C[C@@H]5CO6)nc(OC[C@]56C[C@@H](F)CN5CC5(CC5)C6)nc4c3F)c12 [Compound 595] |  |  |  |  |  |  | 1000 to 10000 | 1000 to 10000 | < 100 | 1000 to 10000 | 1000 to 10000 | < 100
N#Cc1c(N)sc2c(F)ccc(-c3c(C(F)(F)F)cc4c(N5CCn6nc(C(=O)N7CCC7)cc6C5)nc(OCC56CCCN5CC(F)C6)nc4c3F)c12 (stereo not drawn) [Compound 626] |  |  |  |  |  |  | 100 to 1000 | 100 to 1000 | < 100 | 100 to 1000 | 100 to 1000 | < 100
N#Cc1c(N)sc2c(F)ccc(-c3c(C(F)(F)F)cc4c(N5CCn6nc(C(=O)N7CCCC7)cc6C5)nc(OCC56CCCN5CC(F)C6)nc4c3F)c12 (stereo not drawn) [Compound 627] |  |  |  |  |  |  | < 100 | 100 to 1000 | < 100 | < 100 | < 100 | < 100
